Assay results as given in the supplement of paper PMC10307832.

Columns and labels:
Test in all cases: relative viability (nuclei count vs DMSO), 5 days (fraction); higher = more cells survive
Neratinib + Linsitinib = compound: CCOc1cc2ncc(C#N)c(Nc3ccc(OCc4ccccn4)c(Cl)c3)c2cc1NC(=O)/C=C/CN(C)C [Neratinib] + C[C@]1(O)C[C@@H](c2nc(-c3ccc4ccc(-c5ccccc5)nc4c3)c3c(N)nccn32)C1 [Linsitinib] (partner 1 µM)
How it was run: (§1)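 Lung cancer cell lines in 1536-well plates were dosed by pin tool the day after seeding, either with one drug alone or with a fixed anchor-drug dose plus five library-drug doses (not always all listed) in √10 steps. After 5 days, cells were fixed and their nuclei stained in one step (final 0.05% Triton X-100, 1% formaldehyde, 1 ug/ml Hoechst), then counted on 4× images. Relative viability is the nuclei count in treated wells divided by that in vehicle wells. Values are medians of duplicate plates.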

Neratinib + Crizotinib = compound: CCOc1cc2ncc(C#N)c(Nc3ccc(OCc4ccccn4)c(Cl)c3)c2cc1NC(=O)/C=C/CN(C)C [Neratinib] + C[C@@H](Oc1cc(-c2cnn(C3CCNCC3)c2)cnc1N)c1c(Cl)ccc(F)c1Cl [Crizotinib] (partner 1 µM)
How it was run: as §1

Neratinib + Tozasertib = compound: CCOc1cc2ncc(C#N)c(Nc3ccc(OCc4ccccn4)c(Cl)c3)c2cc1NC(=O)/C=C/CN(C)C [Neratinib] + Cc1cc(Nc2cc(N3CCN(C)CC3)nc(Sc3ccc(NC(=O)C4CC4)cc3)n2)n[nH]1 [Tozasertib] (partner 0.1 µM)
How it was run: as §1

Neratinib + OSI-027 = compound: CCOc1cc2ncc(C#N)c(Nc3ccc(OCc4ccccn4)c(Cl)c3)c2cc1NC(=O)/C=C/CN(C)C [Neratinib] + COc1cccc2cc(-c3nc([C@H]4CC[C@H](C(=O)O)CC4)n4ncnc(N)c34)[nH]c12 [OSI-027] (partner 0.5 µM)
How it was run: as §1

Cell Line	relative viability (Neratinib + Linsitinib; first compound 0.01 µM)	relative viability (Neratinib + Linsitinib; first compound 0.03162 µM)	relative viability (Neratinib + Linsitinib; first compound 0.1 µM)	relative viability (Neratinib + Linsitinib; first compound 0.3162 µM)	relative viability (Neratinib + Linsitinib; first compound 1 µM)	relative viability (Neratinib + Crizotinib; first compound 0.01 µM)	relative viability (Neratinib + Crizotinib; first compound 0.03162 µM)	relative viability (Neratinib + Crizotinib; first compound 0.1 µM)	relative viability (Neratinib + Crizotinib; first compound 0.3162 µM)	relative viability (Neratinib + Crizotinib; first compound 1 µM)	relative viability (Neratinib + Tozasertib; first compound 0.01 µM)	relative viability (Neratinib + Tozasertib; first compound 0.03162 µM)	relative viability (Neratinib + Tozasertib; first compound 0.1 µM)	relative viability (Neratinib + Tozasertib; first compound 0.3162 µM)	relative viability (Neratinib + Tozasertib; first compound 1 µM)	relative viability (Neratinib + OSI-027; first compound 0.01 µM)	relative viability (Neratinib + OSI-027; first compound 0.03162 µM)	relative viability (Neratinib + OSI-027; first compound 0.1 µM)	relative viability (Neratinib + OSI-027; first compound 0.3162 µM)	relative viability (Neratinib + OSI-027; first compound 1 µM)
HCC-78	0.543	0.665	0.483	0.338	0.241	0.325	0.3	0.284	0.264	0.225	0.584	0.373	0.401	0.379	0.238	0.387	0.333	0.354	0.27	0.296
NCI-H3122	1.05	0.993	1.04	1.02	0.256	0.291	0.284	0.222	0.188	0.198	0.437	0.422	0.388	0.375	0.135	1.03	0.987	0.9	0.9	0.154
NCI-H1993	0.833	0.659	0.71	0.648	0.838	0.859	0.901	0.586	0.771	0.677	0.528	0.594	0.597	0.536	0.593	0.387	0.576	0.655	0.643	0.674
EMC-BAC-2	0.834	0.775	0.683	0.578	0.435	0.828	0.817	0.635	0.709	0.407	0.326	0.352	0.317	0.314	0.188	0.36	0.456	0.344	0.361	0.291
NCI-H661	0.621	0.536	0.499	0.299	0.197	1.06	0.983	0.989	0.828	0.343	0.374	0.322	0.323	0.37	0.308	0.688	0.615	0.54	0.325	0.24
LCLC-97TM1	0.215	0.194	0.165	0.161	0.155	0.344	0.33	0.314	0.242	0.136	0.239	0.189	0.298	0.238	0.121	0.615	0.537	0.547	0.346	0.27
H3255	0.963	0.961	0.725	0.233	0.0969	0.836	0.838	0.671	0.243	0.164	0.759	0.721	0.423	0.233	0.236	0.559	0.571	0.436	0.212	0.215
LXF-289	0.998	1.01	0.913	0.98	0.789	0.879	0.871	0.75	0.821	0.752	0.22	0.233	0.183	0.174	0.186	0.876	0.875	0.777	0.759	0.542
NCI-H647	1.08	1.16	1.14	1.07	0.601	1.21	0.978	0.852	0.835	0.427	0.281	0.333	0.155	0.195	0.174	0.831	0.738	0.593	0.483	0.175
LC-2-ad	0.87	0.842	0.785	0.673	0.321	0.456	0.457	0.41	0.386	0.294	0.448	0.424	0.455	0.388	0.277	0.831	0.877	0.749	0.518	0.383
SK-MES-1	–	1.09	0.888	0.507	0.395	1.02	0.998	0.969	–	0.314	0.947	0.996	0.955	0.631	0.21	0.566	0.687	0.538	0.305	0.185
A-427	1.13	1.19	1.11	1.07	0.731	1.07	0.936	0.819	0.924	0.566	0.234	0.246	0.177	0.214	0.145	0.487	0.499	0.467	0.332	0.218
NCI-H441	0.585	0.716	0.469	0.267	0.219	0.73	0.74	0.587	0.606	0.268	0.611	0.775	0.666	0.384	0.334	0.681	0.566	0.598	0.357	0.275
HCC-366	0.736	0.734	–	0.759	0.614	0.653	0.766	0.46	0.48	0.519	0.102	0.114	0.144	0.0752	0.0557	1.1	0.949	0.785	0.803	0.163
NCI-H1975	1.13	1.12	0.78	0.285	0.223	1.14	1.05	0.752	0.442	0.193	0.869	–	0.698	0.324	0.106	0.826	0.921	0.629	0.25	0.177
NCI-H1437	1.27	1.1	–	0.793	0.723	1.04	0.853	0.897	0.789	0.822	0.43	0.439	0.296	0.38	0.328	0.851	0.886	0.812	0.763	0.759
NCI-H2023	0.658	0.675	0.465	0.446	0.303	0.642	0.523	0.484	0.419	0.287	0.389	0.33	0.292	0.211	0.141	0.432	0.493	0.31	0.331	0.179

Cell Line	relative viability (Neratinib + Linsitinib; first compound 0.01 µM)	relative viability (Neratinib + Linsitinib; first compound 0.03162 µM)	relative viability (Neratinib + Linsitinib; first compound 0.1 µM)	relative viability (Neratinib + Linsitinib; first compound 0.3162 µM)	relative viability (Neratinib + Linsitinib; first compound 1 µM)	relative viability (Neratinib + Crizotinib; first compound 0.01 µM)	relative viability (Neratinib + Crizotinib; first compound 0.03162 µM)	relative viability (Neratinib + Crizotinib; first compound 0.1 µM)	relative viability (Neratinib + Crizotinib; first compound 0.3162 µM)	relative viability (Neratinib + Crizotinib; first compound 1 µM)	relative viability (Neratinib + Tozasertib; first compound 0.01 µM)	relative viability (Neratinib + Tozasertib; first compound 0.03162 µM)	relative viability (Neratinib + Tozasertib; first compound 0.1 µM)	relative viability (Neratinib + Tozasertib; first compound 0.3162 µM)	relative viability (Neratinib + Tozasertib; first compound 1 µM)	relative viability (Neratinib + OSI-027; first compound 0.01 µM)	relative viability (Neratinib + OSI-027; first compound 0.03162 µM)	relative viability (Neratinib + OSI-027; first compound 0.1 µM)	relative viability (Neratinib + OSI-027; first compound 0.3162 µM)	relative viability (Neratinib + OSI-027; first compound 1 µM)
NCI-H1651	1.13	0.925	0.911	0.747	0.786	0.927	0.944	0.86	0.846	0.564	0.743	0.792	0.543	0.58	0.312	0.769	0.838	0.627	0.564	0.337
LCLC-103H	1.21	0.975	–	0.961	0.814	1.09	0.989	0.88	0.892	0.884	0.44	0.503	0.502	0.511	0.365	0.562	0.48	0.47	0.463	0.394
NCI-H1666	0.876	0.654	0.591	0.372	0.361	1.29	1.13	0.579	0.595	0.566	0.615	0.563	0.538	–	0.541	0.901	0.905	0.751	0.552	0.683
NCI-H1734	0.997	0.925	0.814	0.754	0.646	0.838	0.722	0.535	0.646	0.446	0.231	0.281	0.168	0.266	0.212	0.659	0.638	–	0.552	0.331
EPLC-272H	1.19	1.08	0.999	0.711	0.872	0.997	0.964	0.799	0.613	0.553	–	0.204	0.267	0.269	0.203	–	0.294	–	0.24	0.194
NCI-H2085	0.858	1.11	0.81	0.668	0.474	0.992	0.928	0.823	0.664	0.483	0.729	0.909	0.716	0.675	0.458	0.736	0.882	0.647	0.398	0.266
BEN	1.03	0.961	0.814	0.744	0.544	0.849	1.1	0.869	0.762	0.509	0.559	0.576	0.416	0.517	0.447	0.286	0.304	0.275	0.283	0.286
COR-L 105	0.989	1.07	0.754	0.298	0.241	0.978	0.828	0.531	0.201	0.22	0.41	0.418	0.375	0.251	0.186	0.863	0.54	0.36	0.226	0.283
ABC-1	0.781	–	0.611	0.433	0.292	1.47	0.954	1.06	0.668	0.537	0.206	0.139	0.177	0.146	0.185	0.436	0.441	0.47	0.42	0.214
HCC-15	0.894	0.913	0.776	0.81	0.551	0.843	0.906	0.829	0.707	0.648	0.673	0.453	0.39	0.341	0.174	0.707	0.794	0.6	0.559	0.511
SW 1573	0.742	0.89	0.778	0.782	0.642	0.91	0.929	0.892	0.628	0.546	0.203	0.152	0.194	0.177	0.122	0.685	0.595	0.542	0.544	0.276
NCI-H2009	1.2	1.15	0.85	1.18	–	1.02	1.05	0.524	0.946	0.783	0.732	0.799	0.621	0.613	0.554	0.677	0.762	0.59	0.467	0.304
NCI-H358	–	–	0.264	0.26	0.205	0.65	0.409	0.391	0.161	0.182	0.0993	0.0867	0.0981	0.0713	0.0842	0.65	0.514	0.275	0.117	0.107
NCI-H1915	1.11	1.13	–	1.09	0.874	0.973	0.931	0.864	0.811	0.725	0.42	0.475	0.402	0.39	0.346	0.697	0.67	0.294	0.595	0.424
UMC-11	0.925	1.07	0.655	0.921	0.684	0.651	0.684	0.52	0.537	0.528	0.198	0.2	0.216	0.179	0.185	0.487	0.487	0.415	0.414	0.308
LOU-NH91	0.871	0.831	0.656	0.504	0.529	0.735	0.669	0.588	0.501	0.479	0.635	0.665	0.527	0.503	0.411	0.706	0.715	0.471	0.46	0.408
